Measurements: PubChem BioAssay AID1963834 (Molecular Pharmacology Branch, DTP, NCI, 2024)

System: 873145-292-R-J1-PDC complex spheroid viability
Assay: Anticancer human tumor 873145-292-R-J1-PDC patient-derived renal clear cell carcinoma cell line growth inhibition [POLQ]
Settings: for IC50: curve of first compound; for viability, T/C: stronger effect = lower value
Procedure, shortened: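 Growth inhibition in 3D: complex spheroids (tumor PDC, HUVEC, MSC) treated with POLQ inhibitor combinations; where Cmax unknown, highest tested concentration 10 microM, except SN-38 at 1 microM.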

[1] = second compound 0.0316 µM, first compound 0.00316 µM
[2] = second compound 0.0316 µM, first compound 0.01 µM
[3] = second compound 0.0316 µM, first compound 0.0316 µM
[4] = second compound 0.0316 µM, first compound 0.1 µM
[5] = second compound 0.0316 µM, first compound 0.316 µM
[6] = second compound 0.0316 µM, first compound 1 µM
[7] = second compound 0.1 µM, first compound 0.00316 µM
[8] = second compound 0.1 µM, first compound 0.01 µM
[9] = second compound 0.1 µM, first compound 0.0316 µM
[10] = second compound 0.1 µM, first compound 0.1 µM
[11] = second compound 0.1 µM, first compound 0.316 µM
[12] = second compound 0.1 µM, first compound 1 µM
[13] = second compound 0.316 µM, first compound 0.00316 µM
[14] = second compound 0.316 µM, first compound 0.01 µM
[15] = second compound 0.316 µM, first compound 0.0316 µM
[16] = second compound 0.316 µM, first compound 0.1 µM
[17] = second compound 0.316 µM, first compound 0.316 µM
[18] = second compound 0.316 µM, first compound 1 µM
[19] = second compound 1 µM, first compound 0.00316 µM
[20] = second compound 1 µM, first compound 0.01 µM
[21] = second compound 1 µM, first compound 0.0316 µM
[22] = second compound 1 µM, first compound 0.1 µM
[23] = second compound 1 µM, first compound 0.316 µM
[24] = second compound 1 µM, first compound 1 µM
[25] = second compound 3.16 µM, first compound 0.00316 µM
[26] = second compound 3.16 µM, first compound 0.01 µM
[27] = second compound 3.16 µM, first compound 0.0316 µM
[28] = second compound 3.16 µM, first compound 0.1 µM
[29] = second compound 3.16 µM, first compound 0.316 µM
[30] = second compound 3.16 µM, first compound 1 µM
[31] = second compound 10 µM, first compound 0.00316 µM
[32] = second compound 10 µM, first compound 0.01 µM
[33] = second compound 10 µM, first compound 0.0316 µM
[34] = second compound 10 µM, first compound 0.1 µM
[35] = second compound 10 µM, first compound 0.316 µM
[36] = second compound 10 µM, first compound 1 µM
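Further: spheroids exposed to compounds for 7 days before viability readout.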
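Wherever viability, T/C is given: luminescence signal used as surrogate for viable cell content; 100% = DMSO vehicle control viability.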

C=CCn1c(=O)c2cnc(Nc3ccc(N4CCN(C)CC4)cc3)nc2n1-c1cccc(C(C)(C)O)n1 + COC1C(OC(N)=O)C(O)C(Oc2ccc3c(O)c(NC(=O)c4ccc(O)c(CC=C(C)C)c4)c(=O)oc3c2C)OC1(C)C
IC50 (second compound 0.0316 µM): > 1000 nM
IC50 (second compound 0.1 µM): > 1000 nM
IC50 (second compound 0.316 µM): > 1000 nM
IC50 (second compound 1 µM): > 1000 nM
IC50 (second compound 3.16 µM): > 1000 nM
IC50 (second compound 10 µM): > 1000 nM
viability, T/C [1]: 98.9%
viability, T/C [2]: 109%
viability, T/C [3]: 89.8%
viability, T/C [4]: 85.5%
viability, T/C [5]: 90.7%
viability, T/C [6]: 70.1%
viability, T/C [7]: 102%
viability, T/C [8]: 97.6%
viability, T/C [9]: 100%
viability, T/C [10]: 95.5%
viability, T/C [11]: 84.9%
viability, T/C [12]: 69.9%
viability, T/C [13]: 100%
viability, T/C [14]: 109%
viability, T/C [15]: 96%
viability, T/C [16]: 97.7%
viability, T/C [17]: 83.5%
viability, T/C [18]: 74.5%
viability, T/C [19]: 98.8%
viability, T/C [20]: 96%
viability, T/C [21]: 99.6%
viability, T/C [22]: 83.2%
viability, T/C [23]: 94.6%
viability, T/C [24]: 63.1%
viability, T/C [25]: 100%
viability, T/C [26]: 98.8%
viability, T/C [27]: 89.5%
viability, T/C [28]: 89.5%
viability, T/C [29]: 88.3%
viability, T/C [30]: 75.7%
viability, T/C [31]: 100%
viability, T/C [32]: 92.1%
viability, T/C [33]: 101%
viability, T/C [34]: 96.8%
viability, T/C [35]: 76.5%
viability, T/C [36]: 72%

CNCc1ccc(-c2[nH]c3cc(F)cc4c3c2CCNC4=O)cc1 + COC1C(OC(N)=O)C(O)C(Oc2ccc3c(O)c(NC(=O)c4ccc(O)c(CC=C(C)C)c4)c(=O)oc3c2C)OC1(C)C
IC50 (second compound 0.0316 µM): > 10000 nM
IC50 (second compound 0.1 µM): > 10000 nM
IC50 (second compound 0.316 µM): > 10000 nM
IC50 (second compound 1 µM): > 10000 nM
IC50 (second compound 3.16 µM): > 10000 nM
IC50 (second compound 10 µM): > 10000 nM
viability, T/C [3]: 106%
viability, T/C [4]: 96.8%
viability, T/C [5]: 102%
viability, T/C [6]: 96.7%
viability, T/C (second compound 0.0316 µM, first compound 3.16 µM): 90.7%
viability, T/C (second compound 0.0316 µM, first compound 10 µM): 91.6%
viability, T/C [9]: 97%
viability, T/C [10]: 97.8%
viability, T/C [11]: 88%
viability, T/C [12]: 95.6%
viability, T/C (second compound 0.1 µM, first compound 3.16 µM): 88%
viability, T/C (second compound 0.1 µM, first compound 10 µM): 98.3%
viability, T/C [15]: 94.9%
viability, T/C [16]: 89.4%
viability, T/C [17]: 95.8%
viability, T/C [18]: 89.2%
viability, T/C (second compound 0.316 µM, first compound 3.16 µM): 96.1%
viability, T/C (second compound 0.316 µM, first compound 10 µM): 104%
viability, T/C [21]: 90.4%
viability, T/C [22]: 98.5%
viability, T/C [23]: 118%
viability, T/C [24]: 86.7%
viability, T/C (second compound 1 µM, first compound 3.16 µM): 95.7%
viability, T/C (second compound 1 µM, first compound 10 µM): 102%
viability, T/C [27]: 99.5%
viability, T/C [28]: 95.8%
viability, T/C [29]: 98.4%
viability, T/C [30]: 92.2%
viability, T/C (second compound 3.16 µM, first compound 3.16 µM): 98.1%
viability, T/C (second compound 3.16 µM, first compound 10 µM): 96.1%
viability, T/C [33]: 98.5%
viability, T/C [34]: 101%
viability, T/C [35]: 92.4%
viability, T/C [36]: 94.7%
viability, T/C (second compound 10 µM, first compound 3.16 µM): 98.5%
viability, T/C (second compound 10 µM, first compound 10 µM): 102%

COc1cccc(OCCCN)c1-c1cc(Nc2cnc(C#N)cn2)n[nH]1 + COC1C(OC(N)=O)C(O)C(Oc2ccc3c(O)c(NC(=O)c4ccc(O)c(CC=C(C)C)c4)c(=O)oc3c2C)OC1(C)C
IC50 (second compound 0.0316 µM): > 1000 nM
IC50 (second compound 0.1 µM): > 1000 nM
IC50 (second compound 0.316 µM): > 1000 nM
IC50 (second compound 1 µM): > 1000 nM
IC50 (second compound 3.16 µM): > 1000 nM
IC50 (second compound 10 µM): > 1000 nM
viability, T/C [1]: 102%
viability, T/C [2]: 82.4%
viability, T/C [3]: 62.8%
viability, T/C [4]: 61.3%
viability, T/C [5]: 61%
viability, T/C [6]: 68.7%
viability, T/C [7]: 106%
viability, T/C [8]: 93.8%
viability, T/C [9]: 71.1%
viability, T/C [10]: 71.5%
viability, T/C [11]: 62.1%
viability, T/C [12]: 72.3%
viability, T/C [13]: 104%
viability, T/C [14]: 84.8%
viability, T/C [15]: 64.7%
viability, T/C [16]: 57.8%
viability, T/C [17]: 71.1%
viability, T/C [18]: 62.1%
viability, T/C [19]: 97.9%
viability, T/C [20]: 76.3%
viability, T/C [21]: 62.5%
viability, T/C [22]: 62.4%
viability, T/C [23]: 58.7%
viability, T/C [24]: 72.9%
viability, T/C [25]: 108%
viability, T/C [26]: 72%
viability, T/C [27]: 71.9%
viability, T/C [28]: 63.8%
viability, T/C [29]: 68.4%
viability, T/C [30]: 68.7%
viability, T/C [31]: 90.8%
viability, T/C [32]: 80%
viability, T/C [33]: 73.1%
viability, T/C [34]: 62.6%
viability, T/C [35]: 66.1%
viability, T/C [36]: 78.3%
